Source: ChEMBL document CHEMBL1124225, “2,3-Diarylindenes and 2,3-diarylindenones: synthesis, molecular structure, photochemistry, estrogen receptor binding affinity, and comparisons with related triarylethylenes” (J Med Chem, 1988)

Target: Estrogen receptor (Rattus norvegicus) (UniProt P06211+Q62986)
Test: Binding affinity for rat uterine estrogen receptor relative to estradiol
Assay type: protein assay

SMILES | RBA [%]
O=C1C(c2ccccc2)=C(c2ccccc2)c2ccc(O)cc21 | 59
Oc1ccc2c(c1)Cc1c-2c2ccccc2c2ccccc12 | 0.01
O=C1C(c2ccc(O)cc2)=C(c2ccc(O)cc2)c2ccc(O)cc21 | 23
Oc1ccc2c(c1)CC(c1ccccc1)=C2c1ccccc1 | 8.9

Now from value to compound:

RBA [%] | SMILES
140 | Oc1ccc(C2=C(c3ccc(O)cc3)c3ccc(O)cc3CC2)cc1
15 | Oc1ccc(C2=C(c3ccc(O)cc3)c3ccc(O)cc3C2)cc1
